Data reported in US20250312499A1, “KISSPEPTIN RECEPTOR (KISS1R) TARGETED THERAPEUTICS AND USES THEREOF” (priority 2024, published 2025).
Square brackets hold non-standard residues; d marks the D form. Peptide text beside a SMILES is read from it. * marks the point of attachment. DOTA(Lu) = O=C1CN2CCN3CCN(CC(=O)*)CCN(CC2)CC(=O)[O][Lu]([O]1)[O]C(=O)C3; DOTA = O=C(O)CN1CCN(CC(=O)O)CCN(CC(=O)*)CCN(CC(=O)O)CC1; Ala(9-anthryl) = N[C@@H](Cc1c2ccccc2cc2ccccc12)C(=O)O; Gly(N-(3-F-4-Me-benzyl)) = Cc1ccc(CNCC(=O)*)cc1F; Bpa = N[C@@H](Cc1ccc(C(=O)c2ccccc2)cc1)C(=O)O; Api(1-amidino) = N=C(N)N1CCC(N)(C(=O)O)CC1; Hydrocinnamoyl(4-Me) = Cc1ccc(CCC(=O)*)cc1; Bip = N[C@@H](Cc1ccc(-c2ccccc2)cc1)C(=O)O; Hydrocinnamoyl(4-I) = O=C(CCc1ccc(I)cc1)*; HO(CH2CH2O)2CH2CH2CO = O=C(CCOCCOCCO)*; 2Nal = N[C@@H](Cc1ccc2ccccc2c1)C(=O)O; d2Nal = N[C@H](Cc1ccc2ccccc2c1)C(=O)O; Palmitoyl = CCCCCCCCCCCCCCCC(=O)*; Trx = NC[C@H]1CC[C@H](C(=O)O)CC1; 4Pal = N[C@@H](Cc1ccncc1)C(=O)O; d4Pal = N[C@H](Cc1ccncc1)C(=O)O; Cha = N[C@@H](CC1CCCCC1)C(=O)O; Lauroyl = CCCCCCCCCCCC(=O)*; 4Amb = NCc1ccc(C(=O)O)cc1; Api = NC1(C(=O)O)CCNCC1; PEG2 = NCCOCCOCCC(=O)O; Ahx = NCCCCCC(=O)O; azaGly = NNC(=O)O; Sar = CNCC(=O)O

These compounds were tested against human kisspeptin receptor (Homo sapiens (Human), UniProt Q969F8) (assay: Human KISS1R binding assay (membrane competition binding)). Details: not given.
Outline: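 Membranes from tetracycline-induced (48 h) Flp-In T-Rex 293 cells expressing receptor, 5–10 μg, incubated 90 min at room temperature with 0.2 nM [125I]-metastin (45-54) and competitor (typically 0–10,000 nM) in Tris/Mg/Ca/EGTA/0.1% BSA, pH 7.4. Filtration, washing, counting; Ki by non-linear regression.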

human kisspeptin receptor, sequence (Q969F8 whole entry): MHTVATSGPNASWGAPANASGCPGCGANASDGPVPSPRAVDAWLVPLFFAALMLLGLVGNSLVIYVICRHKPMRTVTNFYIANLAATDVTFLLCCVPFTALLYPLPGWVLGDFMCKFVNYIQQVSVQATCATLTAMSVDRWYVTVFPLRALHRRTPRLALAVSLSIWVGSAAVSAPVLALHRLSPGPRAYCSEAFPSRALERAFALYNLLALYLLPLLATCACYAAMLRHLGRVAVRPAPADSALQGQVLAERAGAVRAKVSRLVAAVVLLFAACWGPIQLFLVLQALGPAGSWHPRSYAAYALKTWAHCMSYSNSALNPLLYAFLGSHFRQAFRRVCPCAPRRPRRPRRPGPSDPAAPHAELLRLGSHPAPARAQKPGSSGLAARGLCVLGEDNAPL

Cc1ccc(CNCC(=O)N2CCC(NC(=O)[C@H](CC(C)C)NC(=O)NNC(=O)[C@H](Cc3ccccc3)NC(=O)[C@@H](NC(=O)[C@H](CC(N)=O)NC(=O)[C@H](Cc3ccc4ccccc4c3)NC(=O)[C@@H](Cc3ccc(O)cc3)NC(=O)CCCCCNC(=O)CN3CCN4CCN5CCN(CC3)CC(=O)[O][Lu]([O]C(=O)C4)[O]C(=O)C5)[C@@H](C)O)(C(=O)N[C@@H](Cc3c[nH]c4ccccc34)C(N)=O)CC2)cc1F [Compound 118-Lu] ({DOTA(Lu)-Ahx}-[dY][2Nal]NTF[azaGly]L[Api](Gly(N-(3-F-4-Me-benzyl)))W-NH2) showed a Ki of less than 10 nM.

Same assay, conditions: 90 min at room temperature; competition with 0.2 nM [125I]-metastin (45-54); Flp-In T-Rex 293 kisspeptin membranes; metal complexes nonradioactive Ga, In, Lu; read-out: hKiSSR Binding Ki (90 min)

CC(C)C[C@H](NC(=O)NNC(=O)[C@H](Cc1ccccc1)NC(=O)[C@@H](NC(=O)[C@H](CC(N)=O)NC(=O)[C@H](Cc1ccc(-c2ccccc2)cc1)NC(=O)[C@@H](Cc1ccc(O)cc1)NC(=O)CCCCCNC(=O)CN1CCN(CC(=O)O)CCN(CC(=O)O)CCN(CC(=O)O)CC1)[C@@H](C)O)C(=O)NC1(C(=O)N[C@@H](Cc2c[nH]c3ccccc23)C(N)=O)CCN(C(=N)N)CC1 [Compound 198] ({DOTA-Ahx}-[dY][Bip]NTF[azaGly]L[Api(1-amidino)]W-NH2) and CC(C)C[C@H](NC(=O)NNC(=O)[C@H](Cc1ccccc1)NC(=O)[C@@H](NC(=O)[C@H](CC(N)=O)NC(=O)[C@H](Cc1ccc(C(=O)c2ccccc2)cc1)NC(=O)[C@@H](Cc1ccc(O)cc1)NC(=O)CCCCCNC(=O)CN1CCN(CC(=O)O)CCN(CC(=O)O)CCN(CC(=O)O)CC1)[C@@H](C)O)C(=O)NC1(C(=O)N[C@@H](Cc2c[nH]c3ccccc23)C(N)=O)CCN(C(=N)N)CC1 [Compound 183] ({DOTA-Ahx}-[dY][Bpa]NTF[azaGly]L[Api(1-amidino)]W-NH2) cannot be ordered by Ki: less than 10 nM for the first, less than 10 nM for the second.

Going from Cc1ccc(CNCC(=O)N2CCC(NC(=O)[C@H](CC(C)C)NC(=O)NNC(=O)[C@H](Cc3ccccc3)NC(=O)[C@H]3CC[C@H](CNC(=O)CCCCCNC(=O)CN4CCN(CC(=O)O)CCN(CC(=O)O)CCN(CC(=O)O)CC4)CC3)(C(=O)N[C@@H](Cc3c[nH]c4ccccc34)C(N)=O)CC2)cc1F [Compound 38] ({DOTA-Ahx-Trx}-F[azaGly]L[Api](Gly(N-(3-F-4-Me-benzyl)))W-NH2) to Cc1ccc(CNCC(=O)N2CCC(NC(=O)[C@H](CC(C)C)NC(=O)NNC(=O)[C@H](Cc3ccccc3)NC(=O)[C@@H](N)CCCCNC(=O)CN3CCN(CC(=O)O)CCN(CC(=O)O)CCN(CC(=O)O)CC3)(C(=O)N[C@@H](Cc3c[nH]c4ccccc34)C(N)=O)CC2)cc1F [Compound 37] (H-K(DOTA)F[azaGly]L[Api](Gly(N-(3-F-4-Me-benzyl)))W-NH2), the Ki falls from greater than 100 nM to less than 10 nM. The second binds more tightly here.

CCCCCCCCCCCCCCCC(=O)N[C@H](Cc1ccc(O)cc1)C(=O)N[C@@H](CCCCNC(=O)CN1CCN(CC(=O)O)CCN(CC(=O)O)CCN(CC(=O)O)CC1)C(=O)N[C@@H](CC(N)=O)C(=O)N[C@H](C(=O)N[C@@H](Cc1ccccc1)C(=O)NNC(=O)N[C@@H](CC(C)C)C(=O)NC1(C(=O)N[C@@H](Cc2c[nH]c3ccccc23)C(N)=O)CCN(C(=N)N)CC1)[C@@H](C)O [Compound 328] (Palmitoyl-[dY]K(DOTA)NTF[azaGly]L[Api(1-amidino)]W-NH2) and CCCCCCCCCCCC(=O)N[C@H](Cc1ccc(O)cc1)C(=O)N[C@@H](CCCCNC(=O)CN1CCN(CC(=O)O)CCN(CC(=O)O)CCN(CC(=O)O)CC1)C(=O)N[C@@H](CC(N)=O)C(=O)N[C@H](C(=O)N[C@@H](Cc1ccccc1)C(=O)NNC(=O)N[C@@H](CC(C)C)C(=O)NC1(C(=O)N[C@@H](Cc2ccc(O)cc2)C(N)=O)CCN(C(=N)N)CC1)[C@@H](C)O [Compound 331] (Lauroyl-[dY]K(DOTA)NTF[azaGly]L[Api(1-amidino)]Y-NH2) cannot be ordered by Ki: less than 10 nM for the first, less than 10 nM for the second.

First: Cc1ccc(CNCC(=O)N2CCC(NC(=O)[C@H](CC(C)C)NC(=O)NNC(=O)[C@H](Cc3ccccc3)NC(=O)[C@@H](CC(N)=O)NC(=O)CN3CCN(CC(=O)O)CCN(CC(=O)O)CCN(CC(=O)O)CC3)(C(=O)N[C@@H](Cc3c[nH]c4ccccc34)C(N)=O)CC2)cc1F [Compound 21] ({DOTA}-[dN]F[azaGly]L[Api](Gly(N-(3-F-4-Me-benzyl)))W-NH2)
Second: Cc1ccc(CNCC(=O)N2CCC(NC(=O)[C@H](CC(C)C)NC(=O)NNC(=O)[C@H](Cc3ccccc3)NC(=O)[C@@H](NC(=O)[C@H](CC(N)=O)NC(=O)[C@@H](Cc3ccncc3)NC(=O)[C@@H](Cc3ccc(O)cc3)NC(=O)CN3CCN(CC(=O)O)CCN(CC(=O)O)CCN(CC(=O)O)CC3)[C@@H](C)O)(C(=O)N[C@@H](Cc3c[nH]c4ccccc34)C(N)=O)CC2)cc1F [Compound 23] ({DOTA}-[dY][d4Pal]NTF[azaGly]L[Api](Gly(N-(3-F-4-Me-benzyl)))W-NH2)
The Ki of the first is higher: 10 to 100 nM for the first, less than 10 nM for the second.

CNCC(=O)N1CCC(NC(=O)[C@H](CC(C)C)NC(=O)NNC(=O)[C@H](CC2CCCCC2)NC(=O)[C@@H](NC(=O)[C@H](CC(N)=O)NC(=O)[C@H](CCCCNC(=O)CN2CCN(CC(=O)O)CCN(CC(=O)O)CCN(CC(=O)O)CC2)NC(=O)[C@@H](Cc2ccc(O)cc2)NC(=O)CCOCCOCCNC(=O)CCc2ccc(C)cc2)[C@@H](C)O)(C(=O)N[C@@H](Cc2c[nH]c3ccccc23)C(N)=O)CC1 [Compound 387] ({Hydrocinnamoyl(4-Me)-PEG2}-[dY]K(DOTA)NT[Cha][azaGly]L[Api](Sar)W-NH2) and CC(C)C[C@H](NC(=O)NNC(=O)[C@H](Cc1ccccc1)NC(=O)[C@@H](NC(=O)[C@H](CC(N)=O)NC(=O)[C@H](CCCCNC(=O)CN1CCN(CC(=O)O)CCN(CC(=O)O)CCN(CC(=O)O)CC1)NC(=O)[C@@H](Cc1ccc(O)cc1)NC(=O)CCOCCOCCNC(=O)CCc1ccc(I)cc1)[C@@H](C)O)C(=O)NC1(C(=O)N[C@@H](Cc2c[nH]c3ccccc23)C(N)=O)CCN(C(=N)N)CC1 [Compound 196] ({Hydrocinnamoyl(4-I)-PEG2}-[dY]K(DOTA)NTF[azaGly]L[Api(1-amidino)]W-NH2) cannot be ordered by Ki: less than 10 nM for the first, less than 10 nM for the second.

First: CCc1cc(-c2ccccc2OCCNC(=O)[C@H](Cc2ccccc2)NC(=O)CCCCCNC(=O)CN2CCN(CC(=O)O)CCN(CC(=O)O)CCN(CC(=O)O)CC2)ccc1C(=O)NC1(C(=O)N[C@@H](Cc2c[nH]c3ccccc23)C(N)=O)CCN(C(=O)CNCc2ccc(C)c(F)c2)CC1 [Compound 284]
Second: Cc1ccc(CNCC(=O)N2CCC(NC(=O)[C@H](CC(C)C)NC(=O)NNC(=O)[C@H](Cc3ccccc3)NC(=O)[C@@H](NC(=O)[C@H](CC(N)=O)NC(=O)[C@@H](Cc3c[nH]c4ccccc34)NC(=O)[C@@H](Cc3ccc(O)cc3)NC(=O)CCCCCNC(=O)CN3CCN(CC(=O)O)CCN(CC(=O)O)CCN(CC(=O)O)CC3)[C@@H](C)O)(C(=O)N[C@@H](Cc3ccc(O)cc3)C(N)=O)CC2)cc1F [Compound 366] ({DOTA-Ahx}-[dY][dW]NTF[azaGly]L[Api](Gly(N-(3-F-4-Me-benzyl)))Y-NH2)
The Ki of the first is higher: 10 to 100 nM for the first, less than 10 nM for the second. The second binds more tightly here.

Cc1ccc(CNCC(=O)N2CCC(NC(=O)[C@H](CC(C)C)NC(=O)NNC(=O)[C@H](Cc3ccccc3)NC(=O)[C@@H](NC(=O)[C@H](CC(N)=O)NC(=O)[C@@H](Cc3ccncc3)NC(=O)[C@@H](Cc3ccc(O)cc3)NC(=O)CCCCCNC(=O)CN3CCN(CC(=O)O)CCN(CC(=O)O)CCN(CC(=O)O)CC3)[C@@H](C)O)(C(=O)N[C@@H](Cc3ccncc3)C(N)=O)CC2)cc1F [Compound 294] ({DOTA-Ahx}-[dY][d4Pal]NTF[azaGly]L[Api](Gly(N-(3-F-4-Me-benzyl)))[4Pal]-NH2) and Cc1ccc(CNCC(=O)N2CCC(NC(=O)[C@H](CC(C)C)NC(=O)NNC(=O)[C@H](Cc3ccccc3)NC(=O)[C@@H](NC(=O)[C@H](CC(N)=O)NC(=O)[C@@H](Cc3ccc4ccccc4c3)NC(=O)[C@@H](Cc3ccc(O)cc3)NC(=O)CCCCCNC(=O)CN3CCN(CC(=O)O)CCN(CC(=O)O)CCN(CC(=O)O)CC3)[C@@H](C)O)(C(=O)N[C@@H](Cc3ccc(O)cc3)C(N)=O)CC2)cc1F [Compound 367] ({DOTA-Ahx}-[dY][d2Nal]NTF[azaGly]L[Api](Gly(N-(3-F-4-Me-benzyl)))Y-NH2) cannot be ordered by Ki: less than 10 nM for the first, less than 10 nM for the second.

Compared with Cc1ccc(CNCC(=O)N2CCC(NC(=O)[C@H](CC(C)C)NC(=O)NNC(=O)[C@H](Cc3ccccc3)NC(=O)[C@@H](NC(=O)[C@H](CC(N)=O)NC(=O)[C@@H](CCCCNC(=O)CN3CCN(CC(=O)O)CCN(CC(=O)O)CCN(CC(=O)O)CC3)NC(=O)CCOCCOCCO)[C@@H](C)O)(C(=O)N[C@@H](Cc3ccncc3)C(N)=O)CC2)cc1F [Compound 254] ({HO(CH2CH2O)2CH2CH2CO}-[dK](DOTA)NTF[azaGly]L[Api](Gly(N-(3-F-4-Me-benzyl)))[4Pal]-NH2), Cc1ccc(CNCC(=O)N2CCC(NC(=O)[C@H](CC(C)C)NC(=O)NNC(=O)[C@H](Cc3ccncc3)NC(=O)[C@@H](NC(=O)[C@H](CC(N)=O)NC(=O)c3ccc(CNC(=O)CN4CCN(CC(=O)O)CCN(CC(=O)O)CCN(CC(=O)O)CC4)cc3)[C@@H](C)O)(C(=O)N[C@@H](Cc3ccncc3)C(N)=O)CC2)cc1F [Compound 259] ({DOTA-4Amb}-NT[4Pal][azaGly]L[Api](Gly(N-(3-F-4-Me-benzyl)))[4Pal]-NH2) is higher in Ki: less than 10 nM for the first, 10 to 100 nM for the second. The first binds more tightly here.

CC(C)C[C@H](NC(=O)NNC(=O)[C@H](Cc1ccccc1)NC(=O)CCCCCNC(=O)[C@H](Cc1ccc2ccccc2c1)NC(=O)[C@@H](Cc1ccc(O)cc1)NC(=O)CN1CCN(CC(=O)O)CCN(CC(=O)O)CCN(CC(=O)O)CC1)C(=O)NC1(C(=O)N[C@@H](Cc2ccccc2)C(N)=O)CCN(C(=N)N)CC1 [Compound 289] ({DOTA}-[dY][2Nal][Ahx]F[azaGly]L[Api(1-amidino)]F-NH2) and CC(C)C[C@H](NC(=O)NNC(=O)[C@H](Cc1ccccc1)NC(=O)[C@@H](NC(=O)[C@H](CC(N)=O)NC(=O)[C@H](Cc1c2ccccc2cc2ccccc12)NC(=O)[C@@H](Cc1ccc(O)cc1)NC(=O)CCCCCNC(=O)CN1CCN(CC(=O)O)CCN(CC(=O)O)CCN(CC(=O)O)CC1)[C@@H](C)O)C(=O)NC1(C(=O)N[C@@H](Cc2ccncc2)C(N)=O)CCN(C(=N)N)CC1 [Compound 222] ({DOTA-Ahx}-[dY][Ala(9-anthryl)]NTF[azaGly]L[Api(1-amidino)][4Pal]-NH2) cannot be ordered by Ki: less than 10 nM for the first, less than 10 nM for the second.
